# Several values for one entry are separate records, joined by “and”; a condition that tells them apart may be missing. Equal entries are not always repeated. Entries after “also recorded” stand apart in the source; their conditions may differ.
# How the values were obtained:
# [1] = test system: cultured neuronal network; test: Spiking activity of cultured cortical neuronal network on multi-electrode array (MEA); assay type: cell-based, rat; conditions: 5 μM bicuculin, 10 μM DNQX or 20 μM APV added to the culture
# Experimental: Cortical neurons were obtained from newborn rats within 24 hours from birth, following standard harvesting procedures (Culturing nerve cells, 2nd edition, Gary Ranker and Kimberly Goslin, 1998). The cortex tissue was digested enzymatically and mechanically dissociated and the neurons were plated directly onto substrate-integrated multi-electrode array (MEA) dishes prepared as described below. The cultures were bathed in MEM which was supplemented with heat-inactivated horse serum (5%), Glutamine (0.5 mM), Glucose (20 mM), and Gentamycin (10 μg/ml), and maintained in a tissue culture incubator at 37° C., 5% CO2 and 95% during the recording phases. Half of the medium was exchanged twice a week and the experiments were performed during the third week following plating, thus allowing complete maturation of the neurons (FIGS. 1a-b).
# Arrays of 60 Ti/Au/TiN electrodes, 30 μm in diameter, spaced 200 μm from each other (MultiChannelSystems (MCS), Reutlingen, Germany) were utilized in the present study. The insulation layer (silicon nitride), was pretreated with poly-L-lysine forming a good surface for network development. A commercial 60-channel amplifier (B-MEA-1060, MCS, Reutlingen, Germany) with frequency limit range of 10-3000 Hz and a gain of ×1024 was utilized for signal amplification. The amplifier was connected to MCPPlus filter amplifiers (Alpha Omega, Nazareth, Israel) for further amplification (×10 to ×20). Stimulation through the MEA was performed using a dedicated 8-channel stimulus generator (MCS, Reutlingen, Germany).
# In addition, the micro-incubation environment was arranged to support long-term recordings from MEA dishes. This was achieved by streaming a filtered, heated and humidified air/CO2 (95/5%) gas mixture, and by electrically heating the MEA platform to 37° C. Data is digitized using two 5200a/526 A/D boards (Microstar Laboratories, WA, USA).
# Following electrical functionality determination, the neuronal network cultures were incubated with various electrical conduction blockers.
# [2] = test system: right ventricular free wall; test: In vivo local ventricular effective refractory period (ERP) after cell grafting, swine model; set-up: species or system pig; conditions: for ventricular ERP following local application of MTx: swine, sites grafted with transfected fibroblasts, all CLs (FIG. 20b)
# Experimental: Swine model—Three domestic pigs (20-30) kg were studied. Anesthesia was induced with 5-10 ml of intravenous sodium pentothal 2.5% solution and maintained with inhaled isoflurane (2%) in oxygen. Following a right thoracotomy, each heart was exposed and a total of 6×10^6 cells were transplanted at a total of 7 different locations in the anterior free wall of the right ventricle. Cells were delivered using a 25 g needle using an injection volume of 250 μl. The sites of cell transplantation were marked with a suture. To prevent graft rejection, the animals were treated with an immunosuppressive regimen (cyclosporine, 10 mg/kg/d and methylprednisolone, 3 mg/kg/d). 7 days following cell transplantation, a second thoracotomy and a detailed epicardial electrophysiological study were performed.
# The ERP in the pigs was measured in a similar manner to that in the rats but using slower basic stimulation intervals (CLs of 350, 400 and 500 ms). The ERP was measured at the site of cell transplantation as well as in remote sites and also following local intramyocardial injection of Margatoxin at the examined sites.
# [3] = test system: left ventricular myocardium; test: In vivo local ventricular effective refractory period (ERP) after cell grafting, rat model; conditions: for local ventricular ERP at the site of cell transplantation after MTx: study group (Kv1.3 fibroblasts, n=10), mean±SEM (FIG. 19b)
# Experimental: Rat model—Male Sprague-Dawley rats weighing 200-250 gr were anesthetized using A Xylasine (0.5 mg/kg) and Ketamine (0.5 mg/kg) preparation [see Example 7]. The animals were then intubated and ventilated using a Harvard small-animal mechanical respirator. The chest wall was opened using a left thoracotomy and the heart was exposed. After removal of the pericardium, a total of 6×10^6 cells (either fibroblasts without transfections in the control group or fibroblast overexpressing the KV1.3 channel in the study group) were transplanted into the anterior aspect of the left ventricular wall using a 28 g needle. In order to prevent graft rejection, all animals were treated with a daily dose of cyclosporin (10 mg/kg) and methyprednisolone (2 mg/kg). The animals underwent a detailed electrophysiological study (see below) immediately before cell grafting and 7 days post-transplantation.
# In vivo electrophysiological studies—The electrophysiological study in rats included a standard ventricular pacing protocol to determine the local myocardial effective refractory period (ERP). The ERP was evaluated by applying a train of 20 stimuli at a fixed cycle-length of 200 ms (S1), followed by a single premature stimulus (S2). The S1-S2 coupling interval was gradually shortened. The ERP was determined as the shortest S1-S2 coupling interval still capable of eliciting a ventricular response. Stimuli were generated using a computer controlled STG 1004 stimulus generator with the matching MC-Stim software (both from Multi Channel Systems, Reutlingen, Germany).
# The ERP was measured at the site of cell transplantation and at remote sites, both prior to cell transplantation and seven days following cell grafting. In order to dissect the role of the overexpressed channel in altering the local myocardial electrophysiological properties, the ERP was measured also at each site following application of 9 μg/kg of Margatoxin (Alomone Labs, Jerusalem, Israel), a specific Kv 1.3 channel blocker as an intraperitoneal bolus.
# [4] = test system: neonatal rat (Sprague Dawley) ventricular myocytes; test: Spontaneous beating rate of neonatal rat ventricular myocyte/fibroblast co-cultures (MEA), with CTx; assay type: cell-based
# Excerpt: Cell co-culturing—Primary monolayer cultures of neonatal rat (Sprague Dawley) ventricular myocytes were generated as previously described [Nuss H B, Marban E, Johns D C. Overexpression of a human potassium channel suppresses cardiac hyperexcitability in rabbit ventricular myocytes. J Clin Invest. 1999; 103:889-96]. Briefly, following excision, the ventricles were minced and treated with RDB (IIBR, Ness-Ziona, Israel). Following centrifugation, dispersed cells were suspended in culture medium (Ham's F10), 5% fetal calf serum, 5% horse serum, 100 U/ml penicillin, […] streptomycin (all from Biological industries, Beit Haemek, Israel), 1 mM CaCl2 and 50 mg/100 ml bromodeoxyuridine (BrdU, Sigma). The cells were then cultured on gelatin coated (0.1%) microelectrode culture plates at a density of 1.5×10^6 cells/ml.
# Once a well synchronous spontaneous activity was established in the cardiomyocyte cultures, fibroblasts (naïve, or Kv1.3 expressing fibroblasts) were seeded in a diffuse manner into the cardiomyocytic cultures. Two groups were studied: The cultures were studied daily, and the electrophysiological properties, essentially the spontaneous beating rate of the culture, was assessed at baseline and following application of the specific Kv1.3 blocker, Charybdotoxin (CTx), at increasing dosages (1, 10, 100 nM). […]
# [5] = test system: neonatal rat ventricular cardiomyocytes (NRVM); test: Synchronous activity, conduction block, conduction velocity and signal amplitude of cardiomyocyte/fibroblast co-cultures on MEA; assay type: cell-based
# Experimental: (§1) Monolayer cultures of neonatal rat ventricular cardiomyocytes (NRVM) were prepared as previously described (Rubin et al, 1995), with some modifications. The cultures were maintained in a humidified incubator under a controlled environment of 5% CO2+95% air at 37° C.; fresh medium was replaced on alternating days.
# (§2) Fibroblasts from the NIH 3T3 cell line were transfected with an expression cassette which included a mutant voltage gated potassium channel (Kv1.3) coding sequence (GeneBank Accession number H18261) placed under the transcription control of a constitutive promoter using standard procedures. Fibroblast cultures not transfected with the channel coding sequence were produced from the NIH 3T3 cell-line.
# (§3) Once well synchronous spontaneous activity was established in the cardiomyocyte cultures, fibroblasts transfected with the Kv1.3 channel coding sequence or non-transfected fibroblasts were added to the cultures. Two different methods where used to seed the fibroblasts. In the first method, the fibroblast were suspended in trypsin for 5 minutes following which they were seeded in a diffuse pattern in the cardiomyocytic cultures (FIG. 4a). In the second method, the fibroblasts where pipetted up and down through a 5 ml pipette for 2 minutes and seeded in the cardiomyocytic cultures thus were forming clusters of fibroblasts (FIG. 4b).
# (§4) Extracellular recordings from cultured cardiomyocytes were performed on a PC-based Microelectrode Data Acquisition System (Multi Channel Systems, Reutlingen, Germany), consisting of Multi-Electrode Array (MEA), pre- and filter-amplifiers, data acquisition board, and software. The MEA consists of a 50×50 mm glass substrate, in the center of which is an embedded 0.7×0.7 or 1.4×1.4 mm matrix of 60 Titanium-nitride, gold contacts 10 or 30 μm diameter electrodes insulated with silicone nitride, with inter-electrode distance of 100 or 200 μm (there are no electrodes in the corners of the matrix). Data were recorded at 10-25 KHz with 12-bit precision. During the recording sessions, the MEA (removed from the regular incubator) was constantly perfused with a gas mixture consisting of 5% CO2+95% air. Temperature was kept at 37±0.10° C.
# Recorded data was filtered using cutoff frequency of 2 KHz (Fast et al, 1993). The filtered signal was then differentiated digitally to determine the Local Activation Time (LAT) at each electrode, corresponding to dF/dtmin (where F is the filtered signal) (Dolber and Spach, 1986). Color-coded activation maps were constructed by interpolating the LAT values for the sites between the electrodes, and by extrapolating the LAT values for the 4 corners of the MEA matrix. Activation maps were plotted by means of Matlab standard 2-d plotting function (pcolor) (Matlab 5.3 Mathworks Incorporated©). Conduction velocity was calculated by standard methods (Bayly et al, 1988).
# Conduction block quantification is central to evaluating conduction block development in the cell cultures, and to evaluating reversibility of the conduction block following CTX application. A conduction block was determined using the following algorithm: […]
# Electrical activity of the cultures was recorded on day one immediately prior to seeding of the fibroblasts and then daily until the cultures died or no spontaneous activity was detected. […]
# [6] = test system: cardiomyocytes co-cultured with fibroblasts (NIH 3T3) transfected with voltage gated potassium channel Kv1.3; test: Spontaneous activity rate of cardiomyocyte cultures and fibroblast co-cultures on MEA under CTX; assay type: cell-based, rat
# Experimental: as §1, §2, §3, §4
# Electrical activity of the cultures was recorded on day one immediately prior to seeding of the fibroblasts and then daily until the cultures died or no spontaneous activity was detected. During the daily measurements the cultures where subjected to increasing concentrations (0.1, 1, 10, 100 nM) of CTX.
# Measurement were performed during spontaneous activity from three groups of cardiomyocyte cultures: cultures without fibroblasts, cultures with NIH 3T3 fibroblasts (seeded diffusely) and cultures with transfected NIH 3T3 fibroblasts (expressing the mutant voltage gated potassium channel coding sequence).
compound,measurement,setting,value
CN1CCc2cc3c(cc2[C@H]1[C@@H]1OC(=O)c2c1ccc1c2OCO1)OCO3 [bicuculin],spiking activity in cultured neuronal network,[1],completely abolished
Margatoxin (TIINVKCTSPKQCLPPCKAQFGQSAGAKCMNGKCKCYPH),local ERP after local application of MTx,"[2]; pig grafted with transfected cells, basic CL drive 400 ms (FIG. 20a)",220 ms
same,ventricular ERP following local application of MTx,[2],near baseline values
same,ventricular ERP following local application of MTx,[2]; listed as MTx,not different from the control sites
same,local ERP after administration of Mtx,[3]; control group grafted with naive fibroblasts (n=8),did not change significantly
same,ventricular ERP at the site of cell grafting after Margatoxin,"[3]; one animal grafted with Kv1.3 fibroblasts, basic CL 200 ms (FIG. 19a)",reversed and 100 ms
same,local ventricular ERP at the site of cell transplantation after MTx,[3],117 ± 7.70 ms
same,local ventricular ERP at the site of cell transplantation after MTx,[3]; listed as MTx,117 ± 8 ms
Charybdotoxin (QFTNVSCTTSKECWSVCQRLHNTSRGKCMNKKCRCYS) [CTX],beating frequency after CTx application,[4]; control group (naive fibroblasts),did not significantly alter
same,reversibility of the negative chronotropic effect by CTx,"[4]; study group (Kv1.3 transfected fibroblasts), CTx 100 nM (FIG. 18b)",full reversibility
same,activation map after CTX,"[5]; co-culture with non-transfected fibroblasts, five days after seeding, CTX 10 nM (FIG. 12d)",no appreciable change
same,conduction block factor after Charybdotoxin,"[5]; co-cultures including fibroblasts transfected with Kv1.3, n=10 (FIG. 11)",substantially decreased
same,conduction block factor after Charybdotoxin,"[5]; co-cultures including non-transfected fibroblasts, n=9 (FIG. 11)",minimal response
same,conduction block after CTX treatment,"[5]; co-cultures with Kv1.3 transfected fibroblasts, CTX 10 nM (FIG. 7d)",reversal; also recorded: reversed
same,uncoupling effect after CTX treatment,"[5]; co-cultures with Kv1.3 transfected fibroblasts, CTX 100 nM (FIGS. 6f-g)",reversed
same,increase in spontaneous activity rate,"[6]; CTX 10 nM, cardiomyocyte cultures or cardiomyocytes co-cultured with untransfected fibroblasts",did not increase
same,increase in spontaneous activity rate,"[6]; CTX 10 nM, co-cultures which included the Kv1.3 transfected fibroblasts",20%
same,increase in spontaneous activity rate,"[6]; CTX 100 nM, cardiomyocyte cultures or cardiomyocytes co-cultured with untransfected fibroblasts",up to 15%
same,increase in spontaneous activity rate,"[6]; CTX 100 nM, co-cultures which included the Kv1.3 transfected fibroblasts",55%
"N[C@H](CCCP(=O)(O)O)C(=O)O [APV, D-2-amino-5-phosphonovalerate]",spiking activity in cultured neuronal network,[1],completely abolished
O=[N+]([O-])c1cc2nc(O)c(O)nc2cc1[N+](=O)[O-] [DNQX],spiking activity in cultured neuronal network,[1],completely abolished
